Results taken from patent publication US20030104507A1, “Method for detection of ATP” (priority 2001, published 2003).

Tests used:
[1] = tested on: ATPase activity endogenous to L929 cell lysate; experiment: Detergent inhibition of ATPase endogenous to L929 cell lysate (ATP remaining by luciferase luminescence, 22° C.); assay type: biochemical; parameters: key to Relative ATPase Activity, slope det/slope lysate: slope with detergent / slope without; ≥1.0 = 100% activity, 0.5 = 50%
How it was run: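 L929 lysate (1.5×10^5 cells/ml, four freeze–thaw cycles) held with detergent at final 1.0, 0.5, 0.1 or 0.05% at 22° C; remaining ATP read over time with luciferase-luciferin reagent (100 μM luciferin, 10 mM MgSO4, pH 7.5). Relative ATPase activity = slope of log % ATP remaining vs time with detergent ÷ slope for lysate-only control.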

[2] = target: native firefly luciferase (Photinus pyralis, UniProt P08659); settings: cited from earlier work
native firefly luciferase, sequence (P08659 whole entry): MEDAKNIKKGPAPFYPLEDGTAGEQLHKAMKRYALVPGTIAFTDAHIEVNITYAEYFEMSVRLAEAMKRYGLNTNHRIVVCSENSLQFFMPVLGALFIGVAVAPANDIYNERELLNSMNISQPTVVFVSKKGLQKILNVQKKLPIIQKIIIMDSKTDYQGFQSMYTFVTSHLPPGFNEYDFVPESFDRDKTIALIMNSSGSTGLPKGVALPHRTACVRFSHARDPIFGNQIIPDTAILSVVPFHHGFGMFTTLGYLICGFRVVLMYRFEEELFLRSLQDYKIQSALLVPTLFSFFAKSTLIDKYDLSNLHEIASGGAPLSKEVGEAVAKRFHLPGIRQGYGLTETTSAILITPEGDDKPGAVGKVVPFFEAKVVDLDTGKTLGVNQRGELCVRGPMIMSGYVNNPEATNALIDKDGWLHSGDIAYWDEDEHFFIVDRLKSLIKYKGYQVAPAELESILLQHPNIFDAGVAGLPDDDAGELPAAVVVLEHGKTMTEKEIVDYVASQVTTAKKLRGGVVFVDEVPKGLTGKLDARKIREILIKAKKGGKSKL

[3] = Example 2, 0.02% detergent, 5 min
[4] = Example 2, 0.02% detergent, 75 min
[5] = Example 2, 0.02% detergent, 169 min
[6] = Example 2, 0.02% detergent, 222 min
[7] = Example 2, 0.02% detergent, 260 min

With `CCCCCCCCCCCCCCCC[N+](C)(C)C.[Br-]` [CTAB, Cetyltrimethylammonium bromide] the “Relative ATPase Activity, slope det/slope lysate” value ([1]; 0.02 percent detergent) was 0.718, the “Slope (log percent ATP remaining vs time in minutes)” value ([1]; 0.02 percent detergent) was −0.0046 and the “Average Relative Light Unit Values” ([1]; 0.05% detergent, 5 min) was 6525.51 rlu. For the same compound, the “Percent ATP Remaining” value ([1]; 0.05% detergent, 5 min) was 100%, the “Average Relative Light Unit Values” ([1]; 0.05% detergent, 75 min) was 4029.32 rlu and the “Percent ATP Remaining” value ([1]; 0.05% detergent, 75 min) was 61.7%. For the same compound, the “Average Relative Light Unit Values” ([1]; 0.05% detergent, 169 min) was 2093.80 rlu, the “Percent ATP Remaining” value ([1]; 0.05% detergent, 169 min) was 32.1% and the “Average Relative Light Unit Values” ([1]; 0.05% detergent, 222 min) was 1437.67 rlu. For the same compound, the “Percent ATP Remaining” value ([1]; 0.05% detergent, 222 min) was 22.0%, the “Average Relative Light Unit Values” ([1]; 0.05% detergent, 260 min) was 1002.72 rlu and the “Percent ATP Remaining” value ([1]; 0.05% detergent, 260 min) was 15.4%. The “Relative ATPase Activity, slope det/slope lysate” value ([1]; 0.05 percent detergent) was 0.561, the “Slope (log percent ATP remaining vs time in minutes)” value ([1]; 0.05 percent detergent) was −0.0031 and the “Average Relative Light Unit Values” ([1]; 0.1% detergent, 5 min) was 5104.82 rlu. For the same compound, the “Percent ATP Remaining” value ([1]; 0.1% detergent, 5 min) was 100%, the “Average Relative Light Unit Values” ([1]; 0.1% detergent, 75 min) was 3607.65 rlu and the “Percent ATP Remaining” value ([1]; 0.1% detergent, 75 min) was 70.7%. For the same compound, the “Average Relative Light Unit Values” ([1]; 0.1% detergent, 169 min) was 1889.29 rlu, the “Percent ATP Remaining” value ([1]; 0.1% detergent, 169 min) was 37.0% and the “Average Relative Light Unit Values” ([1]; 0.1% detergent, 222 min) was 1248.51 rlu. For the same compound, the “Percent ATP Remaining” value ([1]; 0.1% detergent, 222 min) was 24.5%, the “Relative ATPase Activity, slope det/slope lysate” value ([1]; 0.10 percent detergent) was 0.507 and the “Slope (log percent ATP remaining vs time in minutes)” value ([1]; 0.10 percent detergent) was −0.0028. For the same compound, the “Average Relative Light Unit Values” ([1]; 0.5% detergent, 5 min) was 0.34 rlu, the “Average Relative Light Unit Values” ([1]; 0.5% detergent, 75 min) was 0.28 rlu and the “Average Relative Light Unit Values” ([1]; 0.5% detergent, 169 min) was 0.23 rlu. The “Average Relative Light Unit Values” ([1]; 0.5% detergent, 222 min) was 0.27 rlu, the “Average Relative Light Unit Values” ([1]; 0.5% detergent, 260 min) was 0.18 rlu and the “Average Relative Light Unit Values” ([1]; 1.0% detergent, 5 min) was 0.09 rlu. The “Average Relative Light Unit Values” ([1]; 1.0% detergent, 75 min) was 0.08 rlu, the “Average Relative Light Unit Values” ([1]; 1.0% detergent, 169 min) was 0.07 rlu and the “Average Relative Light Unit Values” ([1]; 1.0% detergent, 222 min) was 0.06 rlu. The “Average Relative Light Unit Values” ([1]; 1.0% detergent, 260 min) was 0.07 rlu, the “times more ATP present in the sample after four hours when the detergent was present than when it was absent” value ([1]; CTAB 0.05%) was “about four” and the “Percent ATP Remaining” value [1, 3] was 100.00%. For the same compound, the “Percent ATP Remaining” value [1, 4] was 43.22%, the “Percent ATP Remaining” value [1, 5] was 15.49% and the “Percent ATP Remaining” value [1, 6] was 9.73%. The “Percent ATP Remaining” value [1, 7] was 6.92% and the “effect on native firefly luciferase” value [2] was “inactivated”.
For `CCCCCCCCCCCC[N+](C)(C)CCCS(=O)(=O)[O-]` [Sulfobetaine 3-10, N-Dodecyl-N,N-dimethyl-3-ammonio-1-propanesulfonate], the “Relative ATPase Activity, slope det/slope lysate” value ([1]; 0.02 percent detergent) was 1.009, the “Slope (log percent ATP remaining vs time in minutes)” value ([1]; 0.02 percent detergent) was −0.0064 and the “Average Relative Light Unit Values” ([1]; 0.05% detergent, 5 min) was 6247.31 rlu. The “Percent ATP Remaining” value ([1]; 0.05% detergent, 5 min) was 100%, the “Average Relative Light Unit Values” ([1]; 0.05% detergent, 75 min) was 2270.13 rlu and the “Percent ATP Remaining” value ([1]; 0.05% detergent, 75 min) was 36.3%. For the same compound, the “Average Relative Light Unit Values” ([1]; 0.05% detergent, 169 min) was 1053.56 rlu, the “Percent ATP Remaining” value ([1]; 0.05% detergent, 169 min) was 16.9% and the “Average Relative Light Unit Values” ([1]; 0.05% detergent, 222 min) was 465.03 rlu. The “Percent ATP Remaining” value ([1]; 0.05% detergent, 222 min) was 7.4%, the “Average Relative Light Unit Values” ([1]; 0.05% detergent, 260 min) was 233.19 rlu and the “Percent ATP Remaining” value ([1]; 0.05% detergent, 260 min) was 3.7%. The “Relative ATPase Activity, slope det/slope lysate” value ([1]; 0.05 percent detergent) was 1.077, the “Slope (log percent ATP remaining vs time in minutes)” value ([1]; 0.05 percent detergent) was −0.0057 and the “Average Relative Light Unit Values” ([1]; 0.1% detergent, 5 min) was 6506.61 rlu. For the same compound, the “Percent ATP Remaining” value ([1]; 0.1% detergent, 5 min) was 100%, the “Average Relative Light Unit Values” ([1]; 0.1% detergent, 75 min) was 2367.27 rlu and the “Percent ATP Remaining” value ([1]; 0.1% detergent, 75 min) was 36.4%. The “Average Relative Light Unit Values” ([1]; 0.1% detergent, 169 min) was 1100.37 rlu, the “Percent ATP Remaining” value ([1]; 0.1% detergent, 169 min) was 16.9% and the “Average Relative Light Unit Values” ([1]; 0.1% detergent, 222 min) was 446.29 rlu. The “Percent ATP Remaining” value ([1]; 0.1% detergent, 222 min) was 6.9%, the “Average Relative Light Unit Values” ([1]; 0.1% detergent, 260 min) was 222.22 rlu and the “Percent ATP Remaining” value ([1]; 0.1% detergent, 260 min) was 3.4%. The “Relative ATPase Activity, slope det/slope lysate” value ([1]; 0.10 percent detergent) was 1.109, the “Slope (log percent ATP remaining vs time in minutes)” value ([1]; 0.10 percent detergent) was −0.0058 and the “Average Relative Light Unit Values” ([1]; 0.5% detergent, 5 min) was 6565.98 rlu. For the same compound, the “Percent ATP Remaining” value ([1]; 0.5% detergent, 5 min) was 100%, the “Average Relative Light Unit Values” ([1]; 0.5% detergent, 75 min) was 2405.95 rlu and the “Percent ATP Remaining” value ([1]; 0.5% detergent, 75 min) was 36.6%. For the same compound, the “Average Relative Light Unit Values” ([1]; 0.5% detergent, 169 min) was 1211.13 rlu, the “Percent ATP Remaining” value ([1]; 0.5% detergent, 169 min) was 18.4% and the “Average Relative Light Unit Values” ([1]; 0.5% detergent, 222 min) was 609.75 rlu. For the same compound, the “Percent ATP Remaining” value ([1]; 0.5% detergent, 222 min) was 9.3%, the “Average Relative Light Unit Values” ([1]; 0.5% detergent, 260 min) was 391.64 rlu and the “Percent ATP Remaining” value ([1]; 0.5% detergent, 260 min) was 6.0%. The “Relative ATPase Activity, slope det/slope lysate” value ([1]; 0.50 percent detergent) was 0.921, the “Slope (log percent ATP remaining vs time in minutes)” value ([1]; 0.50 percent detergent) was −0.0049 and the “Average Relative Light Unit Values” ([1]; 1.0% detergent, 5 min) was 7861.36 rlu. The “Percent ATP Remaining” value ([1]; 1.0% detergent, 5 min) was 100%, the “Average Relative Light Unit Values” ([1]; 1.0% detergent, 75 min) was 5703.51 rlu and the “Percent ATP Remaining” value ([1]; 1.0% detergent, 75 min) was 72.6%. For the same compound, the “Average Relative Light Unit Values” ([1]; 1.0% detergent, 169 min) was 4318.46 rlu, the “Percent ATP Remaining” value ([1]; 1.0% detergent, 169 min) was 54.9% and the “Average Relative Light Unit Values” ([1]; 1.0% detergent, 222 min) was 3075.12 rlu. For the same compound, the “Percent ATP Remaining” value ([1]; 1.0% detergent, 222 min) was 39.1%, the “Average Relative Light Unit Values” ([1]; 1.0% detergent, 260 min) was 2193.02 rlu and the “Percent ATP Remaining” value ([1]; 1.0% detergent, 260 min) was 27.9%. The “Relative ATPase Activity, slope det/slope lysate” value ([1]; 1.00 percent detergent) was 0.417, the “Slope (log percent ATP remaining vs time in minutes)” value ([1]; 1.00 percent detergent) was −0.0022 and the “Average Relative Light Unit Values” [1, 3] was 6120.5 rlu. The “Percent ATP Remaining” value [1, 3] was 100.00%, the “Average Relative Light Unit Values” [1, 4] was 1622.61 rlu and the “Percent ATP Remaining” value [1, 4] was 26.51%. The “Average Relative Light Unit Values” [1, 5] was 291.09 rlu, the “Percent ATP Remaining” value [1, 5] was 4.76% and the “Average Relative Light Unit Values” [1, 6] was 245.55 rlu. The “Percent ATP Remaining” value [1, 6] was 4.01%, the “Average Relative Light Unit Values” [1, 7] was 136.43 rlu and the “Percent ATP Remaining” value [1, 7] was 2.23%. The “concentrations which resulted in a 25% or greater decrease in the relative ATPase activity” value ([1]; compared to reactions in the absence of detergent) was at least 1%.
